We go through 9 compounds from patent US5091522A, “Retinoic esters of D-desosamine, process for their preparation and their use in human or veterinary medicine and in cosmetic compositions” (L'Oreal, priority 1989, dated 1992).

≈ marks a conversion by molar mass, not a printed value. Read-outs that look alike come from different tables or passages of the source. Where only a bound is given, the exact number is not on record here.

What all share (type): cell-based
Test [1] relates to Propionibacterium acnes P37. The test is described as follows: Minimum inhibiting concentration (MIC) by dilution method, P. acnes strain P37. An excerpt:
(§1) The activity of retinoic esters of D-desosamines has been studied by the dilution method to determine the minimum inhibiting concentration (MIC). This method is described and employed by G. A. Denys et al, Antimicrobial Agents and Chemotherapy (1983) 23, 335-337 and J. J. Leyden et al, J.Am.Acad. Dermatol. (1983) 8 (1) 41-5, by using as the Propionibacterium acnes strain, strain P37 furnished by Cunliffe and Holland.
(§2) The minimum concentration (MIC), expressed in μg/ml of the retinoic esters of D-desosamine tested vis-a-vis strains of Propionibacterium acnes P37, P37 E⊕ and P37 E⊖ and staphilococcus epidermis ATCC 12228, is reported in the following table: […]

For test [2], the system named is Propionibacterium acnes P37 E⊕. Nature of the test: Minimum inhibiting concentration (MIC) by dilution method, P. acnes P37 E⊕ (erythromycin-sensitive population). The following applies: Cutibacterium acnes.
Source text: as §1
(§3) On the other hand, after 8 successive sub-cultures in the same medium (RCM* 19/20, DMSO 1/20 by volume) with the view of obtaining a progressive stabilization of this strain in this medium, a progressive resistance to erythromycin was manifested in the following form:
(§4) after spreading a standardized inoculum (DO=1.8 at 450 nm) on a gelose medium (RCM+furazolidone), in a Petri dish, a 9 mm diameter disc is deposited at its center. On the disc, 50 μg of erythromycin (in solution in DMSO) are deposited.
(§5) The two types of colonies are then retained by stripping of the gelose medium (sterilized platinum loop):
(2) at 1 cm beyond the periphery of the inhibition zone, there are stripped off strains called P37 E⊕.
(§6) After isolation and culturing, the P37 E⊕ and P37 E⊖ strains effectively show very different sensitivities to erythromycin as illustrated by the following MIC values:
as §2

For test [3], the system named is Propionibacterium acnes P37 E⊖. The test is described as follows: Minimum inhibiting concentration (MIC) by dilution method, P. acnes P37 E⊖ (erythromycin-resistant population). The following applies: Cutibacterium acnes, P37E.CRCLBAR.
Source text: as §1, §3, §4, §5
(1) at the interior of the inhibition zone there are stripped off strains, called P37 E⊖ by reason of their apparent resistance to erythromycin.
as §6, §2

Test [4] has as its system staphilococcus epidermis ATCC 12228. Nature of the test: Minimum inhibiting concentration (MIC) by dilution method, staphilococcus epidermis ATCC 12228. The conditions noted are these: read-out: minimum concentration (MIC), TABLE I.
Source text: as §1, §2

The test system of test [5] is Propionibacterium acnes P37. Nature of the test: IC 50 (50% survivors among the population at constant culturing time), P37. The following applies: Cutibacterium acnes, P37, read-out: IC 50 (inhibiting concentration at 50%). From the text:
(§7) This phenomenon is confirmed by the study of the IC 50 (inhibiting concentration at 50% which represents the concentration of erythromycin where, at a constant culturing time, 50% survivors among the population are found

Test [6] has as its system Propionibacterium acnes P37 E⊕. The test is described as follows: IC 50 (50% survivors among the population at constant culturing time), P37 E⊕. The conditions noted are these: Cutibacterium acnes, read-out: IC 50 (inhibiting concentration at 50%).
Source text: as §7

The subject of test [7] is Propionibacterium acnes P37 E⊖. Nature of the test: IC 50 (50% survivors among the population at constant culturing time), P37 E⊖. The conditions noted are these: Cutibacterium acnes, P37E.CRCLBAR., read-out: IC 50 (inhibiting concentration at 50%).
Source text: as §7

The subject of test [8] is Propionibacterium acnes strain P37. Nature of the test: Disc inhibition zone on gelose medium. The conditions noted are these: Cutibacterium acnes, P37, 144 h; 50 μg erythromycin on 9 mm disc; 6 days at 36 C, anaerobic; RCM+furazolidone; after 8 sub-cultures; read-out: inhibition zone of the growth of the strain (total diameter). On the procedure:
as §3, §4
After 6 days at 36.C in an anaerobic medium (GAS-PAK, B.B.L. system) an inhibition zone of the growth of the strain is clearly visible (total diameter =42 mm), the majority of the colonies being situated at the periphery of the inhibition zone.

The mark [9] stands for this setting: Cutibacterium acnes, P37, read-out: minimum concentration (MIC), TABLE I.
Where [10] appears, read: read-out: minimum concentration (MIC), TABLE I.
Where [11] appears, read: Cutibacterium acnes, P37; read-out: minimum concentration (MIC), TABLE I.
Setting [12] is: P37E.SYM., P37 E⊕, read-out: minimum concentration (MIC), TABLE I.

For the compound `C[C@@H]1C[C@H](N(C)C)[C@@H](O)C(O)O1` (stereo partly drawn) [α,β-D-desosamine, reference compound], the MIC in test [1] (setting [9]) was greater than 50 µg/mL; in test [2] (setting [10]), greater than 70 µg/mL; in test [3] (setting [10]), greater than 70 µg/mL; in test [4], greater than 50 µg/mL.
As for `CCCCOC1O[C@H](C)C[C@H](N(C)C)[C@H]1OC(=O)/C=C(C)/C=C/C=C(C)/C=C/c1c(C)cc(OC)c(C)c1C` (stereo partly drawn) [Compound 5, O-etretinoyl (all trans)-2-O-butyl-1-α,β-D-desosamine], the MIC was found to be 3 µg/mL (≈ 5.56 µM) in test [1] (setting [11]), 6 µg/mL (≈ 11.1 µM) in test [2] (setting [12]), 6 µg/mL (≈ 11.1 µM) in test [3] (setting [10]) and 6 µg/mL (≈ 11.1 µM) in test [4] (ATCC 12228).
Regarding `CCCCOC1O[C@H](C)C[C@H](N(C)C)[C@H]1O` (stereo partly drawn) [O-butyl-1-α,β-D-desosamine, reference compound], the MIC was greater than 100 µg/mL in test [1] (setting [11]), greater than 100 µg/mL in test [2] (setting [12]), greater than 110 µg/mL in test [3] (setting [10]) and greater than 100 µg/mL in test [4] (ATCC 12228).
Regarding `CCCCO[C@H]1O[C@H](C)C[C@H](N(C)C)[C@H]1OC(=O)/C=C(C)/C=C/C=C(C)/C=C/c1c(C)cc(OC)c(C)c1C` [Compound 6, O-etretinoyl (all trans)-2-O-butyl-1-α-D-desosamine], the MIC in test [1] (setting [11]) was determined as 19 µg/mL (≈ 35.2 µM); in test [2] (setting [12]) it was 4.3 µg/mL (≈ 7.97 µM); in test [3] (setting [10]), 2.1 µg/mL (≈ 3.89 µM); in test [4] (ATCC 12228), 1.5 µg/mL (≈ 2.78 µM).
Consider `CC[C@H]1OC(=O)[C@H](C)[C@@H](O[C@H]2C[C@@](C)(OC)[C@@H](O)[C@H](C)O2)[C@H](C)[C@@H](O[C@@H]2O[C@H](C)C[C@H](N(C)C)[C@H]2O)[C@](C)(O)C[C@@H](C)C(=O)[C@H](C)[C@@H](O)[C@]1(C)O` [erythromycin], for which the MIC was 0.78 µg/mL (≈ 1.06 µM) in test [1] (Cutibacterium acnes, P37); 0.78 µg/mL (≈ 1.06 µM) in test [2]; 50 µg/mL (≈ 68.1 µM) in test [3]. Moreover, the IC50 was 50 µg/mL (≈ 68.1 µM) in test [5], 5 µg/mL (≈ 6.81 µM) in test [6] and 100 µg/mL (≈ 136 µM) in test [7]. Besides, the zone of inhibition – broadly, the extent of the growth-free halo in a diffusion test – at 50 µg/disc in test [8] was found to be 42 mm.
Consider `CCCCOC1O[C@H](C)C[C@H](N(C)C)[C@H]1OC(=O)/C=C(C)/C=C/C=C(C)/C=C/C1=C(C)CCCC1(C)C` (stereo partly drawn) [Compound 2, O-retinoyl (all trans)-2-O-butyl-1-α-β-D-desosamine], for which the MIC in test [1] (setting [11]) was 15 µg/mL (≈ 29.2 µM); in test [2] (setting [12]), 25 µg/mL (≈ 48.7 µM); in test [3] (setting [10]), 9 µg/mL (≈ 17.5 µM); in test [4] (ATCC 12228) it was 3.5 µg/mL (≈ 6.81 µM).
Take `CCCCO[C@@H]1O[C@H](C)C[C@H](N(C)C)[C@H]1OC(=O)/C=C(C)/C=C/C=C(C)/C=C/c1c(C)cc(OC)c(C)c1C` [Compound 7, O-etretinoyl (all trans)-2-O-butyl-1-β-D-desosamine]: the MIC turned out to be 5.2 µg/mL (≈ 9.63 µM) in test [1] (setting [11]), 40 µg/mL (≈ 74.1 µM) in test [2] (setting [12]), 14.5 µg/mL (≈ 26.9 µM) in test [3] (setting [10]) and 2.3 µg/mL (≈ 4.26 µM) in test [4] (ATCC 12228).
In the case of `CCCCOC1O[C@H](C)C[C@H](N(C)C)[C@H]1OC(=O)\C=C(C)/C=C/C=C(C)/C=C/C1=C(C)CCCC1(C)C` (stereo partly drawn) [Compound 1, O-retinoyl (13 cis)-2-O-butyl-1-α,β-D-desosamine], the MIC was found to be 10.5 µg/mL (≈ 20.4 µM) in test [1] (setting [9]), 21 µg/mL (≈ 40.9 µM) in test [2] (setting [12]), 10.5 µg/mL (≈ 20.4 µM) in test [3] (setting [10]) and 18.5 µg/mL (≈ 36 µM) in test [4] (ATCC 12228).
On to `CO[C@H]1O[C@H](COC(=O)\C=C(C)/C=C/C=C(C)/C=C/C2=C(C)CCCC2(C)C)[C@@H](O)[C@H](O)[C@H]1O` [O-retinoyl (13 cis)-6-O-methyl-1-α-D-glucopyrannose, reference compound], for which the MIC in test [1] (setting [11]), in test [2] (setting [12]), in test [3] (setting [10]) and in test [4] (ATCC 12228) was greater than 45 µg/mL each time.
